For orientation: melting point means the temperature of the solid-liquid transition. Broadly, the logP is the decadic logarithm of the partition coefficient of the neutral form, usually between octanol and water.

This is an account of results in article PMC2680598 (PLoS ONE, 2009).

The target of data set [1] is T1, mtFabH (Mycobacterium tuberculosis, UniProt P9WNG3). Put plainly: mtFabH inhibition assay. Type of data set: biochemical.
Data set [2] has as its system M. tuberculosis H37Rv. Put plainly: M. tuberculosis H37Rv inhibition assays (MIC). Type of data set: cell-based, Mycobacterium tuberculosis. The following applies: for MIC: M. tuberculosis H37Rv.
The target in data set [3] is T1, mtFabH. The note with it: cited from earlier work.
For another data set, the system named is FAS-II. Briefly: FAS-II assay. Type of data set: biochemical. The method, then: (§1) The molecules under investigation were designed to inhibit mtFabH in the mycobacterial FAS-II system, with selectivity over the related mammalian FAS-I system. To examine selectivity, the compounds were assessed using the procedures of Brown et al. and Slayden et al..
(§2) FAS-I and FAS-II experiments were conducted as per Slayden et al. (1996) using the 40–80% ammonium sulphate fraction. The standard reaction mixture for the incorporation of radioactivity from [2-^14C]malonyl-CoA into C16 to C24 fatty acids catalysed by FAS-I was composed as follows: 100 mM Tris.HCl pH 7.9, 5 mM EDTA, 5 mM dithiothreitol, 300 µM acetyl-CoA, 100 µM NADPH, 100 µM NADH, 1 µM flavin mononucleotide, 500 µM α-cyclodextrin, 300 µM CoA-SH, 100,000 cpm of [2-^14C] malonyl-CoA (specific activity 53 Ci/mol), test compound (0.5–200 µg/ml) and 2 mg of cytosolic enzyme preparation in a total volume of 500 µl. Similarly, the standard reaction mixture for incorporation of radioactivity from [2-^14C]malonyl-CoA into C24 to C30 fatty acids catalysed by FAS-II contained the following: 100 mM potassium phosphate buffer (pH 7.0), 5 mM EDTA, 5 mM dithiothreitol, 10 µM palmitoyl-CoA, 140 µM NADPH, 140 µM NADH, 100 µg of AcpM, 40 µM malonyl-CoA, 200,000 cpm of [2-^14C]malonyl-CoA (specific activity 53 Ci/mol), test compound (0.5–200 µg/ml) and 200 mg of cytosolic enzyme preparation in a total volume of 250 µl. In both the FAS-I and FAS-II assays, reactions were performed in triplicate at 37°C for 30 min and terminated by the addition of 250 µl of 20% potassium hydroxide in 50% methanol at 100°C for 45 min. Following acidification with 150 µl of 6 M HCl, the resultant ^14C-labelled fatty acids were extracted three times with petroleum ether. The organic extracts were pooled, washed once with an equal volume of water, and dried in a scintillation vial prior to counting.

The next data set relates to FAS-I. Briefly: FAS-I assay. Type of data set: biochemical. Here is the method: as §1
as §2, with “In both the FAS-I and FAS-II assays, reactions were performed in triplicate at 37°C for 30 min and terminated by the addition of 250 µl of 20% potassium hydroxide in 50% methanol at 100°C for 45 min. Following acidification with 150 µl of 6 M HCl, the resultant ^14C-labelled fatty acids were extracted three times with petroleum ether. The organic extracts were pooled, washed once with an equal volume of water, and dried in a scintillation vial prior to counting.” left out

The subject of data set [4] is M. tuberculosis H37Rv. The following applies: cited from earlier work.
For data set [5] the following is noted: mouse model; no reference given; cited from earlier work.
For data set [6] the following is noted: no reference given; cited from earlier work.
Where [7] appears, read: N/A = no inhibition observed at 200 µg/ml, read-out: mtFabH IC50 (class N/A).
Setting [8] is: Mycobacterium tuberculosis, read-out: TB MIC.
Where [9] appears, read: Mycobacterium tuberculosis, N/A = no inhibition observed at 200 µg/ml, read-out: TB MIC (class N/A).
Where [10] appears, read: read-out: mtFabH IC50 (converted).

SMILES strings stand for the structures. “And” between values parts separate entries of the source, which are not always exact repeats. Equal entries are not always repeated. “Also recorded” adds a separate entry of the source. Where two headings read alike, the source gives them in different places. A value given as a limit tells only on which side of the number the result lay.

T1 sequence (P9WNG3 2-335): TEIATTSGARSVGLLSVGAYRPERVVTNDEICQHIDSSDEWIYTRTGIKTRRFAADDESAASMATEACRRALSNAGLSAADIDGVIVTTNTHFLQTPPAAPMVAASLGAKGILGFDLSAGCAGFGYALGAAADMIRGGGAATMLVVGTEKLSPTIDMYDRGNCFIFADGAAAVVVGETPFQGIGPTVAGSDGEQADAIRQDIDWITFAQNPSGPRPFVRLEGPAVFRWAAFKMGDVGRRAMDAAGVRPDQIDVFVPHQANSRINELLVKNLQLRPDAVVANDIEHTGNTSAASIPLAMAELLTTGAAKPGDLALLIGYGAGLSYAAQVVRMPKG

For the compound `COC(=O)c1nc(N)sc1C` [Compound 6, Methyl 2-amino-5-methylthiazole-4-carboxylate], the melting point fell in the range of 165 to 168 °C. For the same compound, the IC50 on mtFabH [1] (setting [7]) is greater than 1160 µM. In addition, the MIC in the data set with M. tuberculosis H37Rv [2] (setting [8]) was 16 µg/mL and 93 µM.

In the case of `COC(=O)c1nc(N)sc1-c1cccc(Cl)c1` [Compound 8, Methyl 2-amino-5-(3-chlorophenyl)thiazole-4-carboxylate], the melting point was 229 to 232 °C. Besides, the IC50 on mtFabH [1] (setting [7]) was greater than 744 µM. Further, the “inhibition of M. tuberculosis H37Rv (in words)” value in the data set with M. tuberculosis H37Rv [2] was “inactive”. For the same compound, the MIC with M. tuberculosis H37Rv [2] (setting [9]) is greater than 200 µg/mL.

`O=C(CBr)Nc1nc(C(=O)O)c(-c2cccc(Cl)c2)s1` [Compound 18, 2-(2-Bromoacetamido)-5-(3-chlorophenyl)thiazole-4-carboxylic acid] yielded a melting point of 228 to 230 °C. Further, at mtFabH [1], the “inhibition of mtFabH (in words)” value is “failed to inhibit; also recorded: inactive”. Also, the IC50 at mtFabH [1] (setting [7]) was greater than 532 µM. The MIC with M. tuberculosis H37Rv [2] (setting [9]) was greater than 200 µg/mL.

Take `CC1=C(O)C(C)(Cc2ccc(-c3ccc(C(=O)O)cc3)cc2)SC1=O` (centres unmarked) [Compound 4]: the IC50 on mtFabH [3] is 3.1 µM and 3 µM.

`COC(=O)c1nc(NC(=O)CBr)sc1-c1ccccc1` [Compound 14, Methyl 2-(2-bromoacetamido)-5-phenylthiazole-4-carboxylate] came in with a melting point of 218 to 220 °C. Besides, the “inhibition of mtFabH (in words)” value against mtFabH [1] is recorded as “active against mtFabH”. In addition, the IC50 on mtFabH [1] (setting [10]) is 3.1 µM and 3.22 µM. For the same compound, the MIC in the data set with M. tuberculosis H37Rv [2] (setting [9]) is greater than 200 µg/mL. Moreover, the “inhibition of FAS-II (in words)” value with FAS-II is “selective against FAS-II”.

Consider `Nc1nc(C(=O)O)c(-c2ccccc2)s1` [Compound 10, 2-amino-5-phenylthiazole-4-carboxylic acid], for which the melting point was in the range of 242 to 243 °C. The IC50 on mtFabH [1] (setting [7]) is greater than 908 µM. Besides, the “inhibition of M. tuberculosis H37Rv (in words)” value in the data set on M. tuberculosis H37Rv [2] was “inactive”. In addition, the MIC with M. tuberculosis H37Rv [2] (setting [9]) is greater than 200 µg/mL.

Take `Cc1sc(NC(=O)CBr)nc1C(=O)O` [Compound 16, 2-(2-Bromoacetamido)-5-methylthiazole-4-carboxylic acid]: the melting point was 218 to 220 °C. The “inhibition of mtFabH (in words)” value on mtFabH [1] is given as “failed to inhibit”. Moreover, the IC50 on mtFabH [1] (setting [7]) was greater than 717 µM. Further, the MIC with M. tuberculosis H37Rv [2] (setting [9]) was greater than 200 µg/mL.

The compound `O=C(CBr)Nc1nc(C(=O)O)c(Cc2ccccc2)s1` [Compound 19, 5-Benzyl-2-(2-bromoacetamido)thiazole-4-carboxylic acid] came in with a melting point of 220 to 222 °C. Besides, at mtFabH [1] (setting [10]), the IC50 was 633 µM and 718 µM. Besides, the MIC in the data set on M. tuberculosis H37Rv [2] (setting [9]) was greater than 200 µg/mL. Further, the “inhibition of FAS-I (in words)” value with FAS-I is “inhibited both FAS-I and FAS-II”. The “inhibition of FAS-II (in words)” value with FAS-II was “inhibited both FAS-I and FAS-II”.

`Nc1nc(C(=O)O)c(-c2cccc(Cl)c2)s1` [Compound 11, 2-amino-5-(3-chlorophenyl)thiazole-4-carboxylic acid] displayed a melting point of 242 to 244 °C. The IC50 at mtFabH [1] (setting [7]) is greater than 785 µM. Moreover, in the data set with M. tuberculosis H37Rv [2], the “inhibition of M. tuberculosis H37Rv (in words)” value is “active”. For the same compound, the MIC in the data set with M. tuberculosis H37Rv [2] (setting [8]) was 32 µg/mL and 125 µM.

As for `COC(=O)c1nc(NC(=O)CBr)sc1C` [Compound 13, Methyl 2-(2-bromoacetamido)-5-methylthiazole-4-carboxylate], the melting point was 220 to 222 °C. The “inhibition of mtFabH (in words)” value against mtFabH [1] is given as “fails to inhibit”. Moreover, the IC50 at mtFabH [1] (setting [7]) is greater than 682 µM. In addition, the MIC in the data set on M. tuberculosis H37Rv [2] (setting [9]) is greater than 200 µg/mL.

Turning to `Cc1sc(N)nc1C(=O)O` [Compound 9, 2-amino-5-methylthiazole-4-carboxylic acid], the IC50 on mtFabH [1] (setting [7]) is greater than 1260 µM. The MIC with M. tuberculosis H37Rv [2] (setting [8]) is 0.06 µg/mL and 0.35 µM.

Turning to `C=C/C(C)=C/[C@@]1(C)SC(=O)C(C)=C1O` [1 (TLM), thiolactomycin], the MIC in the data set on M. tuberculosis H37Rv [4] (listed as TLM) was 13 µg/ml and 62.5 µM. Besides, in [5], the oral availability entry is “orally available” and the toxicity result is “non-toxic”.

In the case of `NNC(=O)c1ccncc1` [INH, isoniazid], in the data set with M. tuberculosis H37Rv [4], the MIC is 0.25 µg/ml and 1.8 µM. Further, the logP in data set [6] was −1.1.

As for `COC(=O)c1nc(N)sc1-c1ccccc1` [Compound 7, Methyl 2-amino-5-phenylthiazole-4-carboxylate], the melting point lay in the range of 218 to 221 °C. Moreover, on mtFabH [1] (setting [7]), the IC50 was greater than 854 µM. Also, in the data set with M. tuberculosis H37Rv [2], the “inhibition of M. tuberculosis H37Rv (in words)” value is “inactivity”. Moreover, in the data set with M. tuberculosis H37Rv [2] (setting [9]), the MIC is greater than 200 µg/mL.

Consider `O=C(CBr)Nc1nc(C(=O)O)c(-c2ccccc2)s1` [Compound 17, 2-(2-Bromoacetamido)-5-phenylthiazole-4-carboxylic acid], for which the melting point fell in the range of 208 to 210 °C. On mtFabH [1], the “inhibition of mtFabH (in words)” value is “failed to inhibit”. Besides, on mtFabH [1] (setting [7]), the IC50 is greater than 586 µM. Further, in the data set on M. tuberculosis H37Rv [2] (setting [9]), the MIC was greater than 200 µg/mL.

Consider `COC(=O)c1nc(NC(=O)CBr)sc1-c1cccc(Cl)c1` [Compound 3, methyl 2-(2-bromoacetamido)-5-(3-chlorophenyl)thiazole-4-carboxylate], for which, on mtFabH [1], the “inhibition of mtFabH (in words)” value is listed as “active against mtFabH”. Besides, on mtFabH [1] (setting [10]), the IC50 is 2.44 µM and 2.43 µM. For the same compound, the “inhibition of M. tuberculosis H37Rv (in words)” value in the data set with M. tuberculosis H37Rv [2] is “not active”. Also, the MIC in the data set with M. tuberculosis H37Rv [2] (setting [9]) is greater than 200 µg/mL. Further, the “inhibition of FAS-II (in words)” value in the data set with FAS-II is “selective against FAS-II”.

For the compound `COC(=O)c1nc(N)sc1Cc1ccccc1` [Compound 2, methyl 2-amino-5-benzylthiazole-4-carboxylate], the “inhibition of mtFabH (in words)” value at mtFabH [1] is listed as “no activity”. For the same compound, the IC50 on mtFabH [1] (setting [7]) was greater than 805 µM. For the same compound, the MIC in the data set on M. tuberculosis H37Rv [2] (read-out: TB MIC) was 0.24 µM; in the data set on M. tuberculosis H37Rv [2] (setting [8]) it was 0.06 µg/mL and 0.24 µM.

Compound `Nc1nc(C(=O)O)c(Cc2ccccc2)s1` [Compound 12, 2-amino-5-benzylthiazole-4-carboxylic acid] had a melting point of 300 to 302 °C. Besides, the IC50 on mtFabH [1] (setting [7]) is greater than 854 µM. Further, in the data set with M. tuberculosis H37Rv [2], the “inhibition of M. tuberculosis H37Rv (in words)” value was “inactive”. In addition, the MIC in the data set on M. tuberculosis H37Rv [2] (setting [9]) was greater than 200 µg/mL.

`COC(=O)c1nc(NC(=O)CBr)sc1Cc1ccccc1` [Compound 15, Methyl 5-benzyl-2-(2-bromoacetamido)thiazole-4-carboxylate] showed a melting point of 218 to 220 °C. Also, the IC50 on mtFabH [1] (setting [10]) is 160 µM. Also, the MIC in the data set with M. tuberculosis H37Rv [2] (setting [9]) is greater than 200 µg/mL. Further, in the data set with FAS-I, the “inhibition of FAS-I (in words)” value is reported as “failed to inhibit the FAS enzymes”. In addition, the “inhibition of FAS-II (in words)” value with FAS-II is “failed to inhibit the FAS enzymes”.
